Target: T1, LmME (Leishmania major, UniProt Q4QAQ6)
T1 sequence (Q4QAQ6 1-573): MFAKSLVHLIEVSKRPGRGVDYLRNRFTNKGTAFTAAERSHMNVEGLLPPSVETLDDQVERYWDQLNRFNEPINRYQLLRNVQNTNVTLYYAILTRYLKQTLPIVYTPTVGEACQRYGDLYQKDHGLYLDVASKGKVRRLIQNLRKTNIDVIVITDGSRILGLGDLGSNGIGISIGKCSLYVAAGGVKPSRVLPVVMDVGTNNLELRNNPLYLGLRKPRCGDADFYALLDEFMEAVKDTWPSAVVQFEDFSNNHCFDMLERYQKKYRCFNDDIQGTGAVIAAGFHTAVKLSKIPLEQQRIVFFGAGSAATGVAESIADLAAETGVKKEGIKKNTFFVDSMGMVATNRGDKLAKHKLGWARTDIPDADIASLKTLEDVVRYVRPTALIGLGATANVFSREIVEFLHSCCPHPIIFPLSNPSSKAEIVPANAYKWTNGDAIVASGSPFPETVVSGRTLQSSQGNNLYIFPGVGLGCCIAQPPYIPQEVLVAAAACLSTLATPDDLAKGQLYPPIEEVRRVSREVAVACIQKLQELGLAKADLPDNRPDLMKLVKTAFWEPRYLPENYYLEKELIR
Experiment: spectrophotometric NADPH assay at […] nm, malate decarboxylation
Assay type: biochemical

IC50: 1.59 µM
Compound: c1ccc(-c2nnc3sc(Cc4ccc5c(c4)CCCC5)nn23)nc1 [ATR7-010]

From article doi:10.1101/2020.06.19.161828v1 (biorxiv, 2020)
